The values that follow come from US10202378B2, “Therapeutic compounds and uses thereof” (GENENTECH, INC., priority 2015, dated 2019).

One experiment deals with TAF1-BD2 (Homo sapiens, UniProt P21675). As to the kind of experiment: TAF1-BD2 TR-FRET Binding Assay. To be noted: read-out: TAF1-BD2 HTRF IC50.
The target of the next experiment is TAF1-BD1 (Homo sapiens, UniProt P21675). In words: TAF1-BD1 TR-FRET Binding Assay. To be noted: read-out: TAF1-BD1 HTRF IC50.

As usually defined, the IC50 is the midpoint of a concentration-inhibition curve. With `CCOC(=O)c1c(C)[nH]c2c(=O)n(C)cc(C#C[C@@H]3CCC[C@H]3O)c12` (stereo in doubt) [Example 83, ethyl 4-[2-(2-hydroxycyclopentyl)ethynyl]-2,6-dimethyl-7-oxo-1H-pyrrolo[2,3-c]pyridine-3-carboxylate], the IC50 on TAF1-BD2 came to 0.302 µM; at TAF1-BD1, 2.59 µM.
Regarding `Cc1[nH]c2c(=O)n(C)cc(C#CC(C)(O)C3CC3)c2c1-c1nnc(C(C)C)o1` (stereo not shown) [Example 191, 4-(3-cyclopropyl-3-hydroxy-but-1-ynyl)-3-(5-isopropyl-1,3,4-oxadiazol-2-yl)-2,6-dimethyl-1H-pyrrolo[2,3-c]pyridin-7-one], the results for the IC50 on TAF1-BD2 and at TAF1-BD1 were 0.0364 µM and 0.27 µM, respectively.
In the same order, the values of `CCOC(=O)c1c(C)[nH]c2c(=O)n(C)cc(C#CC3(O)C(=O)N(C)c4ccccc43)c12` (stereo not shown) [Example 86, ethyl 4-[2-(3-hydroxy-1-methyl-2-oxo-indolin-3-yl)ethynyl]-2,6-dimethyl-7-oxo-1H-pyrrolo[2,3-c]pyridine-3-carboxylate] are 0.0981 µM and 0.581 µM.
In the same order, the values of `Cc1cc([C@](C)(O)C#Cc2cn(C)c(=O)c3[nH]c(C)c(-c4nnc(C5CC5)o4)c23)no1` [Example 190, 3-(5-cyclopropyl-1,3,4-oxadiazol-2-yl)-4-[(3R)-3-hydroxy-3-(5-methylisoxazol-3-yl)but-1-ynyl]-2,6-dimethyl-1H-pyrrolo[2,3-c]pyridin-7-one] are 0.0499 µM and 0.239 µM.
In the same order, the values of `CCOC(=O)c1c(C)[nH]c2c(=O)n(C)cc(C#CC3(O)CCc4cccnc43)c12` (single isomer, unassigned) [Example 99b, ethyl 4-[2-(7-hydroxy-5,6-dihydrocyclopenta[b]pyridin-7-yl)ethynyl]-2,6-dimethyl-7-oxo-1H-pyrrolo[2,3-c]pyridine-3-carboxylate] are 0.0844 µM and 0.881 µM.
On to `CCOC(=O)c1c(C)[nH]c2c(=O)n(C)cc(C#CC(C)(C)C)c12` [Example 76, ethyl 4-(3,3-dimethylbut-1-ynyl)-2,6-dimethyl-7-oxo-1H-pyrrolo[2,3-c]pyridine-3-carboxylate], for which the figures for the IC50 on TAF1-BD2 and on TAF1-BD1 were 0.777 µM and 0.561 µM, respectively.
On to `Cc1[nH]c2c(=O)n(C)cc(C#CC(O)(c3ccccc3)C(F)(F)F)c2c1C(=O)OCCC#N` (stereo not shown) [Example 166, 2-cyanoethyl 2,6-dimethyl-7-oxo-4-(4,4,4-trifluoro-3-hydroxy-3-phenyl-but-1-ynyl)-1H-pyrrolo[2,3-c]pyridine-3-carboxylate], for which the results for the 50% inhibitory concentration (IC50) on TAF1-BD2 and on TAF1-BD1 were 0.0312 µM and 0.214 µM, respectively.
In the same order, the values of `C=CCn1cc(C#CC(C)(C)O)c2c(C(=O)OCC)c(C)[nH]c2c1=O` [Example 51, ethyl 6-allyl-4-(3-hydroxy-3-methyl-but-1-ynyl)-2-methyl-7-oxo-1H-pyrrolo[2,3-c]pyridine-3-carboxylate] are 0.227 µM and 7.2 µM.
On to `Cc1[nH]c2c(=O)n(C)cc(C#CC(C)(C)O)c2c1C(=O)OC(C)c1ccccc1` (stereo not shown) [Example 120, 1-phenylethyl 4-(3-hydroxy-3-methyl-but-1-ynyl)-2,6-dimethyl-7-oxo-1H-pyrrolo[2,3-c]pyridine-3-carboxylate], for which the results for the IC50 at TAF1-BD2 and at TAF1-BD1 were 0.0832 µM and 0.26 µM, respectively.
In the same order, the values of `CCOC(=O)c1c(C)[nH]c2c(=O)n(C)cc(C#Cc3ccsc3)c12` [Example 62, ethyl 2,6-dimethyl-7-oxo-4-[2-(3-thienyl)ethynyl]-1H-pyrrolo[2,3-c]pyridine-3-carboxylate] are 0.0579 µM and 0.402 µM.
In the same order, the values of `CCOC(=O)c1c(C)[nH]c2c(=O)n(C)cc(C#CC(O)(C3CC3)C(F)(F)F)c12` (stereo not shown) [Example 45, ethyl 4-(3-cyclopropyl-4,4,4-trifluoro-3-hydroxy-but-1-ynyl)-2,6-dimethyl-7-oxo-1H-pyrrolo[2,3-c]pyridine-3-carboxylate] are 0.0747 µM and 0.271 µM.
In the same order, the values of `Cc1[nH]c2c(=O)n(C)cc(C#CC(C)(O)C3CC3)c2c1C1=NC(C(C)C)CO1` (stereo not shown) [Example 203, 4-(3-cyclopropyl-3-hydroxy-but-1-ynyl)-3-(4-isopropyl-4,5-dihydrooxazol-2-yl)-2,6-dimethyl-1H-pyrrolo[2,3-c]pyridin-7-one] are 0.307 µM and 1.12 µM.
Consider `Cc1[nH]c2c(=O)n(C)cc(C#CC(C)(O)CC#N)c2c1C(=O)OCC(C)C` (stereo not shown) [Example 154, isobutyl 4-(4-cyano-3-hydroxy-3-methyl-but-1-ynyl)-2,6-dimethyl-7-oxo-1H-pyrrolo[2,3-c]pyridine-3-carboxylate], for which the IC50 on TAF1-BD2 was 0.0998 µM; on TAF1-BD1 it was 0.15 µM.
For `CCOC(=O)c1c(C)[nH]c2c(=O)n(C)cc(C#CC(O)(c3ccccc3)C(F)(F)F)c12` (stereo not shown) [Example 73, ethyl 2,6-dimethyl-7-oxo-4-(4,4,4-trifluoro-3-hydroxy-3-phenyl-but-1-ynyl)-1H-pyrrolo[2,3-c]pyridine-3-carboxylate], the IC50 on TAF1-BD2 was found to be 0.0695 µM; at TAF1-BD1, 0.287 µM.
As for `CCOC(=O)c1c(C)[nH]c2c(=O)n(C)cc(C#CC3(O)CCCCC3)c12` [Example 81, ethyl 4-[2-(1-hydroxycyclohexyl)ethynyl]-2,6-dimethyl-7-oxo-1H-pyrrolo[2,3-c]pyridine-3-carboxylate], the results for the IC50 on TAF1-BD2 and at TAF1-BD1 were 0.0632 µM and 0.257 µM, respectively.
In the same order, the values of `CCOC(=O)c1c(C)[nH]c2c(=O)n(C)cc(C#CC3(O)CCN(C)C3=O)c12` (stereo not shown) [Example 74, ethyl 4-[2-(3-hydroxy-1-methyl-2-oxo-pyrrolidin-3-yl)ethynyl]-2,6-dimethyl-7-oxo-1H-pyrrolo[2,3-c]pyridine-3-carboxylate] are 0.209 µM and 2.04 µM.
In the same order, the values of `CC(=O)c1c(C)[nH]c2c(=O)n(C)cc(C#CC(C)(C)O)c12` [Example 199a, 3-acetyl-4-(3-hydroxy-3-methyl-but-1-ynyl)-2,6-dimethyl-1H-pyrrolo[2,3-c]pyridin-7-one] are 0.13 µM and 1.3 µM.
In the same order, the values of `Cc1[nH]c2c(=O)n(C)cc(C#CC(C)(C)O)c2c1C(=O)OC(C)(C)C` [Example 133, tert-butyl 4-(3-hydroxy-3-methyl-but-1-ynyl)-2,6-dimethyl-7-oxo-1H-pyrrolo[2,3-c]pyridine-3-carboxylate] are 0.0311 µM and 0.308 µM.
Turning to `CCOC(=O)c1c(C)[nH]c2c(=O)n(C)cc(C#CC3(O)CCNCC3)c12` [Example 12, ethyl 4-[2-(4-hydroxy-4-piperidyl)ethynyl]-2,6-dimethyl-7-oxo-1H-pyrrolo[2,3-c]pyridine-3-carboxylate], the IC50 stood at 0.429 µM on TAF1-BD2 and 0.757 µM on TAF1-BD1.
In the same order, the values of `CCc1nnc(-c2c(C)[nH]c3c(=O)n(C)cc(C#CC(C)(O)C4CC4)c23)o1` (stereo not shown) [Example 181, 4-(3-cyclopropyl-3-hydroxy-but-1-ynyl)-3-(5-ethyl-1,3,4-oxadiazol-2-yl)-2,6-dimethyl-1H-pyrrolo[2,3-c]pyridin-7-one] are 0.0448 µM and 0.199 µM.
In the same order, the values of `CCOC(=O)c1c(C)[nH]c2c(=O)n(C)cc(C#Cc3ccccc3F)c12` [Example 59, ethyl 4-[2-(2-fluorophenyl)ethynyl]-2,6-dimethyl-7-oxo-1H-pyrrolo[2,3-c]pyridine-3-carboxylate] are 0.0562 µM and above 2.22 µM.
In the same order, the values of `Cc1cc2c(C#CC(C)(C)O)cn(C)c(=O)c2[nH]1` [Example 198, 4-(3-hydroxy-3-methyl-but-1-ynyl)-2,6-dimethyl-1H-pyrrolo[2,3-c]pyridin-7-one] are 0.536 µM and 1.74 µM.
Consider `Cc1[nH]c2c(=O)n(C)cc(C#CC(C)(O)c3ccccc3)c2c1C(=O)OCC(C)C` (stereo not shown) [Example 160, isobutyl 4-(3-hydroxy-3-phenyl-but-1-ynyl)-2,6-dimethyl-7-oxo-1H-pyrrolo[2,3-c]pyridine-3-carboxylate], for which the IC50 on TAF1-BD2 was determined as 0.0324 µM; on TAF1-BD1, 0.13 µM.
In the same order, the values of `Cc1[nH]c2c(=O)n(C)cc(C#CC(C)(O)C3CC3)c2c1-c1nnc(C2CCOC2)o1` (single isomer, unassigned) [Example 96b, 4-(3-cyclopropyl-3-hydroxy-but-1-ynyl)-2,6-dimethyl-3-(5-tetrahydrofuran-3-yl-1,3,4-oxadiazol-2-yl)-1H-pyrrolo[2,3-c]pyridin-7-one] are 0.26 µM and 1.14 µM.
In the same order, the values of `CCOC(=O)c1c(C)[nH]c2c(=O)n(C)cc(C#CC(O)(c3cccc(CO)c3)C(F)(F)F)c12` (stereo not shown) [Example 43, ethyl 2,6-dimethyl-7-oxo-4-[4,4,4-trifluoro-3-hydroxy-3-[3-(hydroxymethyl)phenyl]but-1-ynyl]-1H-pyrrolo[2,3-c]pyridine-3-carboxylate] are 0.0355 µM and 0.257 µM.
In the case of `CCOC(=O)c1c(C)[nH]c2c(=O)n(C)cc(C#Cc3cccnc3)c12` [Example 61, ethyl 2,6-dimethyl-7-oxo-4-[2-(3-pyridyl)ethynyl]-1H-pyrrolo[2,3-c]pyridine-3-carboxylate], the IC50 amounted to 0.0477 µM on TAF1-BD2 and 0.292 µM at TAF1-BD1.
In the same order, the values of `CC(=O)NCCC(C)(C)OC(=O)c1c(C)[nH]c2c(=O)n(C)cc(C#CC(C)(C)O)c12` [Example 164, (3-acetamido-1,1-dimethyl-propyl) 4-(3-hydroxy-3-methyl-but-1-ynyl)-2,6-dimethyl-7-oxo-1H-pyrrolo[2,3-c]pyridine-3-carboxylate] are 0.0485 µM and 0.514 µM.
`C=CCCn1cc(C#CC(C)(O)C2CC2)c2c(C(=O)OCC(C)C)c(C)[nH]c2c1=O` (stereo not shown) [Example 122, isobutyl 6-but-3-enyl-4-(3-cyclopropyl-3-hydroxy-but-1-ynyl)-2-methyl-7-oxo-1H-pyrrolo[2,3-c]pyridine-3-carboxylate]: the IC50 on TAF1-BD2 amounted to 0.116 µM; on TAF1-BD1 it was 1.71 µM.
In the same order, the values of `CCOC(=O)c1c(C)[nH]c2c(=O)n(C)cc(C#CC(C)(C)OC)c12` [Example 26, ethyl 4-(3-methoxy-3-methyl-but-1-ynyl)-2,6-dimethyl-7-oxo-1H-pyrrolo[2,3-c]pyridine-3-carboxylate] are 0.284 µM and 0.503 µM.
